Reference: patent US11213512B2, “Bis-amino acid based compound and use thereof” (THE CURATORS OF THE UNIVERSITY OF MISSOURI, priority 2016, dated 2022)
Like-named read-outs stand apart in the source and are kept apart here.

Experiments:
[1] = tested on: S. aureus (ATCC Accession No. 29213); test: MIC, CLSI/NCCLS broth microdilution; type: cell-based, Staphylococcus aureus; details: Staphylococcus aureus, read-out: Minimal Inhibitory Concentration (MIC) S. aureus
Experimental: Two different strains of E. coli (Gram-negative) were used. The laboratory strain of E. coli, K-12 (ATCC Accession No. 700926), was used for preliminary MIC determinations. The tetracycline resistant strain of E. coli (Tet^R) was prepared by transforming competent JM109 E. coli (Promega) with the pBR322 plasmid (Carolina Biologicals) using the manufacturers protocol. This plasmid contains two resistance genes: the tetA gene expresses the tetracycline resistance TetA efflux pump (Sapunaric and Levy, Microbiol. 2005, 151, 2315-2322) and the amp^R gene expresses a β-lactamase enzyme (Bolivar, et al; Gene 1977, 2, 95-113) that cleaves the four membered ring of penicillin derivatives. The resulting E. coli, which we designate Tet^R E. coli, is both tetracycline and ampicillin resistant. The TetA efflux pump belongs to the major facilitator superfamily (MFS), spans the cytoplasmic membrane, and transports tetracycline from the cell cytoplasm to the periplasmic space (Thanassi, et al., J. Bacteriol. 1995, 177, 998-1007). This active efflux utilizes the proton gradient as an energy source (Levy, Antimicrob. Agents Chemother. 1992, 36, 695-703). One Gram-positive strain, S. aureus (ATCC Accession No. 29213), used for MIC study expresses the MFS type NorA efflux pump and is methicillin sensitive. MFS type efflux pumps are clinically relevant for resistance in both Gram-positive and Gram-negative bacteria (Sun, et al., Biochem. Biophys. Res. Commun. 2014, 453, 254-267). A Staphylococcus aureus 1199B strain that overexpresses the NorA efflux pump was also used to conduct checkerboard experiments (see, Example 8 below). This strain of S. aureus 1199B is resistant to both norfloxacin and ethidium bromide.
K-12 E. coli and S. aureus were acquired from ATCC. The S. aureus strain was used in the BSL-2 facility. K-12 E. coli was grown in L. B. Miller media (Sigma-Aldrich) and S. aureus was grown in cation adjusted MHII media (Sigma-Aldrich). Tet^R E. coli was grown in L. B. Miller media containing 100 μg/mL Ampicillin.
MIC experiments were performed as described in the Clinical and Laboratory Standards Institute (CLSI) standard microdilution protocols. Bacteria was grown overnight from one CFU in media without antibiotics. Tet^R E. coli was grown in media containing 100 μg/mL Ampicillin. On the day of experiment, bacteria were knocked back to O.D. 600 nm=0.550 in the same media. These exponential phase bacteria were then diluted in antibiotics-free media to get […]. In a 96-well plate either L. B. Miller or MHII media was added followed by serially diluted compounds 1-11, tetracycline, or ampicillin. All the tryptophan based compounds were dissolved in DMSO and the final concentration of DMSO in each well was kept constant at 0.5% (v/v).
For the combination experiments, first, the BT or control was added to the media in the well followed by the antibiotics. The contents of the well were mixed before adding 20 μL of bacteria to get 4×10^5 CFU/mL per well. The plates were incubated at 37° C., 200 RPM for 24 hours before collecting results on the Biotek Cytation 3 plate reader. No more than three plates were stacked on top of each other at a time. Optical density of the wells was determined at λ=600 nm. Cells alone were considered as 0% inhibition and media alone was considered as 100% inhibition. Any inhibition greater than 80% was considered as the MIC. The results were reproduced three times before reporting.
All minimum inhibitory concentration (MIC) values for compounds 1-11 were determined according to the methods prescribed by the National Committee for Clinical Laboratory Standards (NCCLS, Methods for Dilution Antimicrobial Susceptibility Tests for Bacteria that grow aerobically; National Committee for Clinical Laboratory Standards 2000, 5th Edition, M7-A5). […]

Tet^R E. coli = test: Membrane permeability and viability, confocal microscopy (propidium iodide / fluorescein diacetate); type: cell-based, Escherichia coli; details: 2 at 24 μM, 10 at 6 μM (~½ MIC), 30 min
Experimental: To test the membrane permeability of the Tet^R E. coli, the bacteria was first grown overnight from one CFU in media containing 100 μg/mL Ampicillin at 37° C. and 200 RPM. Tet^R E. coli was then knocked back to O.D. 600 nm=0.550 before use. In a sterile test tube, cells were added followed by either compounds 2 or 10 at half-MIC concentrations and incubated at 37° C. and 200 RPM. The concentration of DMSO was kept constant at 0.5% —by volume in each case. After 30 minutes of incubation, the cells were washed by centrifugation at 3000×g for 5 minutes and re-suspended in sterile phosphate buffered saline (PBS). Propidium iodide (30 μM, Thermo-Fischer) and fluorescein diacetate (60 μM, Sigma-Aldrich) were added to the Tet^R E. coli cells in the PBS, mixed by vortexing and incubated at 37° C. and 200 RPM. After 30 minutes, the cells were washed again by centrifugation at 3000×g for 5 minutes. The pellet was suspended in a fresh PBS, loaded onto a clean glass slide, covered with a cover slip and observed under Zeiss LSM 700 confocal microscope.
The study was designed to assess the membrane permeability and viability of the E. coli in the presence of BTs 2 and 10. The three panels in FIG. 6 show the bright field (BF) microscopic images (top row), the result when fluorescein diacetate (FDA) is present (middle row), and the presence of propidium iodide (PI, bottom row), if any. […] When it does, it intercalates in DNA, which leads to enhanced fluorescence. Fluorescein diacetate is incorporated into the cells during growth, but is not fluorescent. If the organism is or remains vital, the diester will be hydrolyzed and fluorescein will be observed by its fluorescence emission.
Controls for the permeability/viability assay were included for E. coli in the presence of a final concentration of 0.5% (v/v) DMSO (the vehicle for administration of BTs), and a final concentration of 0.1% […] Triton X-100. […] Thus, less than or equal to 0.5% DMSO (v/v) was always used; the control is shown in the second column. Triton X-100 is a potent detergent, which was used at 0.1% or ˜1,670 μM.

[2] = ATCC29213, >80% growth inhibition, 24 h, 37° C.

Row | SMILES | melting point | MIC [1, 2] | MIC ([1]; ATCC29213, 24 h) | viability (fluorescein diacetate fluorescence) (Tet^R E. coli)
1 | Cl.Cl.N[C@@H](Cc1c[nH]c2ccccc12)C(=O)Nc1ccccc1NC(=O)[C@@H](N)Cc1c[nH]c2ccccc12 [Compound 5, (2S,2′S)-1,1′-(1,2-Phenylenebis(azanediyl))bis(3-(1H-indol-3-yl)-1-oxopropan-2-aminium) chloride] | 201 °C (dec.) | 32 µM |  | 
2 | Cl.Cl.N[C@H](Cc1c[nH]c2ccccc12)C(=O)Nc1cccc(NC(=O)[C@H](N)Cc2c[nH]c3ccccc23)c1 [Compound 3, (2R,2′R)-1,1′-(1,3-Phenylenebis(azanediyl))bis(3-(1H-indol-3-yl)-1-oxopropan-2-aminium) chloride] | 242 °C (dec.) | 32 µM |  | 
3 | Cl.Cl.N[C@@H](Cc1c[nH]c2ccccc12)C(=O)NCCCNC(=O)[C@@H](N)Cc1c[nH]c2ccccc12 [Compound 7, (2S,2′S)-1,1′-(Propane-1,3-diylbis(azanediyl))bis(3-(1H-indol-3-yl)-1-oxopropan-2-aminium) chloride] | 234 °C (dec.) |  | > 128 µM | 
4 | Cl.Cl.N[C@@H](Cc1c[nH]c2ccccc12)C(=O)Nc1ccc(NC(=O)[C@@H](N)Cc2c[nH]c3ccccc23)cc1 [Compound 6, (2S,2′S)-1,1′-(1,4-Phenylenebis(azanediyl))bis(3-(1H-indol-3-yl)-1-oxopropan-2-aminium) chloride] | 237 °C (dec.) | 128 µM |  | 
5 | Cl.Cl.N[C@@H](Cc1c[nH]c2ccccc12)C(=O)Nc1cccc(NC(=O)[C@@H](N)Cc2c[nH]c3ccccc23)c1 [Compound 2, (2S,2′S)-1,1′-(1,3-Phenylenebis(azanediyl))bis(3-(1H-indol-3-yl)-1-oxopropan-2-aminium) chloride] | 223 °C (dec.) | 32 µM |  | vital
6 | Cl.Cl.N[C@H](Cc1c[nH]c2ccccc12)C(=O)NCCCCCCCCCCCCNC(=O)[C@@H](N)Cc1c[nH]c2ccccc12 [Compound 10, (S)-1-((12-((R)-2-Ammonio-3-(1H-indol-3-yl)propanamido)dodecyl)amino)-3-(1H-indol-3-yl)-1-oxopropan-2-aminium chloride] | 158 °C (dec.) | 4 µM |  | vital
